The source of these data is paper PMC9074039, “Molecular analysis and essentiality of Aro1 shikimate biosynthesis multi-enzyme in Candida albicans” (Life Science Alliance, 2022).

For test [1], the target named is T1, Aro1DHQS (Candida albicans, UniProt Q5AME2).
T1 construct: gene ARO1; N-terminal DHQS domain, residues 1-387, expressed in E. coli BL21(DE3) Gold, His6-TEV tag cut; dimer in crystal; strain SC5314 printed for the full-length clone pLC1335
As to the kind of experiment: X-ray crystal structure, […] A. In kind it is binding. To be noted: co-crystallised with 2 mM NADH and 0.5 mM ZnCl2; one NADH per chain.

Test [2] deals with T2, Aro1EPSPS (Candida albicans, UniProt Q5AME2).
T2 construct: gene ARO1; EPSPS domain, residues 387-844, expressed in E. coli BL21(DE3) Gold, His6-TEV tag cut; strain SC5314 printed for the full-length clone pLC1335
T2 sequence (Q5AME2 387-844): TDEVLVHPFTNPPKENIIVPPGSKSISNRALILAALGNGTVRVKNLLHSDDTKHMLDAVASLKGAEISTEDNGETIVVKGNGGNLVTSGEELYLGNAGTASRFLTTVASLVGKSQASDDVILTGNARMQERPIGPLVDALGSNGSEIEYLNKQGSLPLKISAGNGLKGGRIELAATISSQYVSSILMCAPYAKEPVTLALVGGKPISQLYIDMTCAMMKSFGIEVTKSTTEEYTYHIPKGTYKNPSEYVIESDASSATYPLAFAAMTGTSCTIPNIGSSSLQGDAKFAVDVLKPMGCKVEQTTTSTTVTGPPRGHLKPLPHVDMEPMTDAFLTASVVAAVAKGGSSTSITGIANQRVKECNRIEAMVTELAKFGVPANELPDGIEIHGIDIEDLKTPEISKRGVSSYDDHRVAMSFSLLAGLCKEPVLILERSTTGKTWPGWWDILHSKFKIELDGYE
As to the kind of experiment: X-ray crystal structure, […] A. The class given is binding. The note with it: co-crystallised with 1 mM shikimate-3-phosphate, pH 8; closed conformation.

T1 sequence (Q5AME2 1-387): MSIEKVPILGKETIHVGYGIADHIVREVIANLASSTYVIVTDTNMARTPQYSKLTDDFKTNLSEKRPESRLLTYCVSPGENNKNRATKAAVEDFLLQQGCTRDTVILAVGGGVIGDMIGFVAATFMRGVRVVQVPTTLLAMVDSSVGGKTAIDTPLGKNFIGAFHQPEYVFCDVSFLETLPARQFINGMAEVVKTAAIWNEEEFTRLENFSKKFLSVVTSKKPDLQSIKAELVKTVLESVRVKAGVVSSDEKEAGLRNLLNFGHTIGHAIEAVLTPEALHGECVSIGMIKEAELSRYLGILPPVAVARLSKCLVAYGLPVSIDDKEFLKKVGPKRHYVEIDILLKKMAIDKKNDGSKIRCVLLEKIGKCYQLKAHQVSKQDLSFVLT

Take `NC(=O)C1=CN([C@@H]2O[C@H](COP(=O)(O)OP(=O)(O)OC[C@H]3O[C@@H](n4cnc5c(N)ncnc54)[C@H](O)[C@@H]3O)[C@@H](O)[C@H]2O)C=CC1` [NADH]: the “X-ray crystal structure, 1.85 A” value in test [1] is “one NADH molecule bound to each copy of this fragment”. Turning to `O=C(O)C1=C[C@@H](OP(=O)(O)O)[C@@H](O)[C@H](O)C1` [S3P, shikimate-3-phosphate], in test [2], the “X-ray crystal structure, 1.85 A” value is reported as “additional electron density corresponding to a molecule of this substrate in the cleft”.
